Results taken from ChEMBL document CHEMBL3091348, “Discovery of an intravenous hepatoselective glucokinase activator for the treatment of inpatient hyperglycemia” (Bioorg Med Chem Lett, 2013).

Legend:
[1] = Lipophilicity, log D of the compound at pH 7.4; assay type: physicochemical; conditions: buffer
Rattus norvegicus = experiment: Antidiabetic activity in Goto-Kakizaki rat diabetic model assessed as reduction in glucose excursion AUC at 100 mg/kg, po measured after 1 hr by oral glucose tolerance test relative to control; set-up: scale not given: the % may be the effect or the level left
[2] = Apparent permeability across RRCK cells; assay type: ADME, cell-based, Canis lupus familiaris, MDCKII-LE; conditions: dog, MDCK
[3] = molecular target: T1, Hexokinase-4 (Homo sapiens) (UniProt P35557); experiment: Activation of recombinant human glucokinase assessed as increase in enzyme Vmax for glucose by G6PDH/NADP coupled assay relative to control
T1 sequence (whole entry): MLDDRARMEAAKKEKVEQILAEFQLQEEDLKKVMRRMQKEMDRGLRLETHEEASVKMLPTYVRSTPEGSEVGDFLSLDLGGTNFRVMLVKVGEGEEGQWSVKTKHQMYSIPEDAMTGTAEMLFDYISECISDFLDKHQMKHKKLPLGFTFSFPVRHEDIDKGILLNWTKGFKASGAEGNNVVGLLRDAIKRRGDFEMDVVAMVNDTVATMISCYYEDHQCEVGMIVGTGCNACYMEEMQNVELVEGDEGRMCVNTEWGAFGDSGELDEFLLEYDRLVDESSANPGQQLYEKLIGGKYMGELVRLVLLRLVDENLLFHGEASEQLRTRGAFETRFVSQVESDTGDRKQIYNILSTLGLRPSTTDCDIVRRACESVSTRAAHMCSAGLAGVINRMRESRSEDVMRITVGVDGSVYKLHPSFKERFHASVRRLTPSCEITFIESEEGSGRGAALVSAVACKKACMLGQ

[4] = molecular target: T1, Hexokinase-4 (Homo sapiens); experiment: Activation of recombinant human glucokinase assessed as decrease in enzyme Km for glucose by G6PDH/NADP coupled assay relative to control
Hexokinase-4 = molecular target: T2, Hexokinase-4 (Homo sapiens, UniProt P35557); experiment: Activation of recombinant human glucokinase by G6PDH/NADP coupled assay
T2 sequence (P35557 whole entry): T1 sequence (whole entry)

[5] = Organic anion transporter-mediated drug uptake in rat hepatocytes assessed as active uptake; assay type: ADME, cell-based, Hepatocyte
[6] = Organic anion transporter-mediated drug uptake in rat hepatocytes assessed as passive uptake; assay type: ADME, cell-based, Hepatocyte
[7] = Organic anion transporter-mediated drug uptake in rat hepatocytes assessed as total uptake; assay type: ADME, cell-based, Hepatocyte
[8] = Aqueous solubility of the compound at pH 8.5; assay type: physicochemical

Q: With `O=C(O)c1ccc(NC(=O)[C@H](CC2CCCC2)n2cnc(C(F)(F)F)c2)nc1` [PF-04991532] as the compound, how does the logD [1] read?
A: 0.68

Q: What about the Activity (Rattus norvegicus) of the same compound?
A: 17.7%

Q: Which results are given for `O=C(O)c1ccc(NC(=O)[C@H](CC2CCCCC2)n2cnc(S(=O)(=O)C3CC3)c2)nc1`?
A: Papp [2]: 0.5 ×10⁻⁶ cm/s; logD [1]: -0.25; fold change (FC) [3]: 1.5; fold change (FC) [4]: 0.08; EC50 (Hexokinase-4): 113 nM

Q: For `CC(C)c1nc(N(C)S(C)(=O)=O)nc(-c2ccc(F)cc2)c1/C=C/[C@@H](O)C[C@@H](O)CC(=O)O` [ROSUVASTATIN], which Drug uptake [5] is on record?
A: 91%

Q: And the Drug uptake [6]?
A: 5.8 µL/min/mg

Q: What about the Drug uptake [7] of the same compound?
A: 158 µL/min/mg

Q: For `O=C([O-])c1ccc(NC(=O)[C@H](CC2CCCC2)n2cnc(S(=O)(=O)C3CCC3)c2)nc1.[Na+]`, which solubility [8] is on record?
A: 41 mM

Q: Which results are given for `O=C(O)c1ccc(NC(=O)[C@H](CC2CCOCC2)n2cnc(S(=O)(=O)C3CCC3)c2)nc1`?
A: Papp [2]: 0.9 ×10⁻⁶ cm/s; logD [1]: -1.55; EC50 (Hexokinase-4): > 10000 nM
